The test concerns DIO mice. Kind of test: Weight loss study in diet-induced obese mice (oral administration). The note with it: 1.0 mg/kg orally in 10% gelucire in deionised water, once a day for 7 days; mice on 60% fat diet; over the course of the 8 days; compared with vehicle group. The format is in vivo, C57BL/6NTac mice. The protocol: A weight loss study was conducted in obese mice. The mice in this study were not genetically obese, but prior to and during the study, obesity was induced by a high-fat diet. Twelve week-old C57BL/6NTac mice, maintained on a 60% fat diet prior to and during the study, were separated into seven groups, eight animals per group. Average body weight of the mice was approximately 47 g at the start of the study.
Each of […] groups was orally administered 1.0 mg/kg of a compound (fumagillin and compounds B. C, D, E, F and G), in 10% gelucire in deionised water. Compounds B-G are as follows:
Each of these six groups was administered a different compound. One group was orally administered fumagillin at 1.0 mg/kg (ZGN-201) in 10% gelucire in deionised water, and one group was administered ([…] in deionised water(vehicle). Mice received administrations once a day for 7 days.
(Data analyzed by ANCOVA with body weight on Day 1 as covariate followed by multiple tests against vehicle group: *p<0.05; **p<0.01, ***p<0.001.)

Entries after “also recorded” stand apart in the source; their conditions may differ.

Turning to `CO[C@@H]1[C@H](OC(=O)NCCC2CCCN2C)CC[C@]2(CO2)[C@H]1[C@@]1(C)O[C@@H]1CC=C(C)C` (some centres unmarked) [C], the “effect on body weight (weight loss)” value is recorded as “lost weight; also recorded: losing the most weight of these four groups”. Consider `CO[C@@H]1[C@H](OC(=O)N[C@@H](C(=O)NCCC2CCCN2C)C(C)C)CC[C@]2(CO2)[C@H]1[C@@]1(C)O[C@@H]1CC=C(C)C` (some centres unmarked) [D], for which the “effect on body weight (weight loss)” value is on record as “lost weight”. Under `CO[C@@H]1[C@H](OC(=O)N[C@@H](C(N)=O)C(C)C)CC[C@]2(CO2)[C@H]1[C@@]1(C)O[C@@H]1CC=C(C)C` [B] stands “lost weight”; under `CO[C@@H]1[C@H](OC(=O)N[C@@H](C(=O)NCCN2CCCC2)C(C)C)CC[C@]2(CO2)[C@H]1[C@@]1(C)O[C@@H]1CC=C(C)C` [E], “lost weight”.

With `CO[C@@H]1[C@H](OC(=O)/C=C/C=C/C=C/C=C/C(=O)O)CC[C@]2(CO2)[C@H]1[C@@]1(C)O[C@@H]1CC=C(C)C` [fumagillin, reference compound], the “effect on body weight (weight loss)” value was “lost the most weight”.

Source of the values: patent publication US9701651B2, “Methods of treating an overweight or obese subject” (Zafgen, Inc., priority 2008, dated 2017).
